Test results: patent US10829520B2, “Beta-hairpin peptidomimetics” (POLYPHOR AG, priority 2015, dated 2020)
Read-outs that look alike come from different tables or passages of the source. Where a SMILES comes first, the peptide text is derived from it. Bridges are numbered along the chain shown (N, C = ends). Roman numbers before positions name the chains, in order. [ ]: non-standard residue; d: D form. NMeW = CN[C@@H](Cc1c[nH]c2ccccc12)C(=O)O; Hyp = O=C(O)[C@@H]1C[C@@H](O)CN1; Tle = CC(C)(C)[C@H](N)C(=O)O; dDab = NCC[C@@H](N)C(=O)O; Nle = CCCC[C@H](N)C(=O)O; Orn = NCCC[C@H](N)C(=O)O; Dab = NCC[C@H](N)C(=O)O; dAze = O=C(O)[C@H]1CCN1; Dap = NC[C@H](N)C(=O)O; Sar = CNCC(=O)O

Experiments:
Assay type in all cases: cell-based
Escherichia coli 926415 = system: Escherichia coli 926415
[1] = system: Acinetobacter baumannii 872842
[2] = system: Acinetobacter baumannii DSM 30008
Summary of the method: (§1)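 CLSI broth microdilution in cation-adjusted Mueller-Hinton II broth with 0.002% Polysorbate 80, inoculum appr. 10^6 CFU/mL, peptides in serial two-fold dilutions. MIC (μg/mL) is the lowest concentration with no visible growth after 18-20 hours at 35° C.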

[3] = system: Pseudomonas aeruginosa ATCC 27853
Summary of the method: as §1

[4] = system: Escherichia coli ATCC 25922
Summary of the method: as §1

[5] = system: Klebsiella pneumoniae SSI #3010
Summary of the method: as §1

[6] = system: Klebsiella pneumoniae 968733
[7] = system: human red blood cells (hRBC); test: Hemolysis of human red blood cells
Summary of the method: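 Washed fresh human erythrocytes (20% v/v, ~0.9×10^9 cells/mL final) were incubated with peptides at 100 μg/mL for 1 h at 37 °C with shaking. Supernatant OD540 measured; hemolysis expressed as % of 2.5% Triton X-100 lysis, with PBS/0.001% acetic acid as 0%.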

[8] = clinical isolate, Mueller-Hinton II broth, P-80 0.002% present
[9] = red cells of human, 1 h, 100 μg/mL

Row | Structure (SMILES) | Escherichia coli 926415 MIC (Escherichia coli 926415; [8]) [µg/mL] | Acinetobacter baumannii 872842 MIC [1, 8] [µg/mL] | Acinetobacter baumannii DSM 30008 MIC ([2]; Mueller-Hinton II broth) [µg/mL] | Pseudomonas aeruginosa ATCC 27853 MIC ([3]; Mueller-Hinton II broth) [µg/mL] | Escherichia coli ATCC 25922 MIC ([4]; Mueller-Hinton II broth) [µg/mL] | Klebsiella pneumoniae SSI #3010 MIC ([5]; Mueller-Hinton II broth) [µg/mL] | Klebsiella pneumoniae 968733 MIC [6, 8] [µg/mL] | Hemolysis at 100 μg/mL ([7]; 100 μg/mL, 20% hRBC, 1 h at 37° C.) [%] | Escherichia coli 926415 MIC (Escherichia coli 926415; 926415) [µg/mL] | Acinetobacter baumannii 872842 MIC [1]; 872842 [µg/mL] | Acinetobacter baumannii DSM 30008 MIC ([2]; DSM 30008) [µg/mL] | Pseudomonas aeruginosa ATCC 27853 MIC ([3]; ATCC 27853) [µg/mL] | Escherichia coli ATCC 25922 MIC ([4]; ATCC 25922) [µg/mL] | Klebsiella pneumoniae SSI #3010 MIC ([5]; SSI #3010) [µg/mL] | Klebsiella pneumoniae 968733 MIC [6]; 968733 [µg/mL] | Hemolysis at 100 μg/mL [7, 9] [%] | Hemolysis at 100 μg/mL ([7]; red cells of human, 1 h, 100) [%]
1 | CC(C)C[C@@H]1NC(=O)[C@@H](CC(C)C)NC(=O)[C@H](CCN)NC(=O)[C@@H](NC(=O)[C@H](CCN)NC(=O)CN(C)C(=O)[C@@H]2CSSC[C@H](N)C(=O)N[C@@H](Cc3c[nH]c4ccccc34)C(=O)N[C@@H](CCN)C(=O)N[C@@H](C(C)C)C(=O)N[C@H]3CSSC[C@H](NC(=O)[C@H](CC(C)C)NC(=O)[C@@H]4CCCN4C(=O)[C@H]4CCCN4C(=O)[C@H](Cc4ccc(O)cc4)NC3=O)C(=O)N[C@@H](Cc3ccc(O)cc3)C(=O)N[C@@H](CCN)C(=O)N[C@@H](CCCN)C(=O)N2)CCNC(=O)[C@H]([C@@H](C)O)NC(=O)[C@H](CCN)NC(=O)[C@H](CCN)NC1=O [Ex. 213] (H-CW[Dab]VCY[dP]PLCY[Dab][Orn]C[Sar][Dab][Dab][Dab][dL]L[Dab][Dab]T; disulfide 1-14, 5-10; lactam 17-C) | 0.5 | 0.5 | 0.5 | 0.5 | 0.125 | 0.5 | 1 | 3 | – | – | – | – | – | – | – | – | –
2 | CCCC[C@@H]1NC(=O)[C@@H]2CCCN2C(=O)[C@H]2CCCN2C(=O)[C@H](CO)NC(=O)[C@H](C)NC(=O)[C@H](C(C)(C)C)NC(=O)[C@@H](NC(=O)[C@@H](N)Cc2c[nH]c3ccccc23)CSSC[C@@H](C(=O)N[C@@H](CCN)C(=O)N[C@H](C(=O)N[C@@H](CCN)C(=O)N[C@H]2CCNC(=O)[C@H]([C@@H](C)O)NC(=O)[C@H](CCN)NC(=O)[C@H](CCN)NC(=O)[C@H](CC(C)C)NC(=O)[C@@H](CC(C)C)NC(=O)[C@H](CCN)NC2=O)[C@@H](C)O)NC(=O)[C@H](Cc2ccc(O)cc2)NC(=O)[C@H](CO)NC1=O [Ex. 15] (H-WC[Tle]AS[dP]P[Nle]SYC[Dab]T[Dab][Dab][Dab][dL]L[Dab][Dab]T; disulfide 2-11; lactam 15-C) | – | – | – | – | – | – | – | – | 0.125 | 0.25 | 0.5 | 1 | 0.125 | 0.25 | 2 | 1 | –
3 | CC(C)C[C@@H]1NC(=O)[C@@H](CC(C)C)NC(=O)[C@H](CCN)NC(=O)[C@@H](NC(=O)[C@H](CCN)NC(=O)[C@@H](NC(=O)[C@H](CCN)NC(=O)CC[C@@H]2NC(=O)[C@H](CCN)NC(=O)[C@H](Cc3ccc(O)cc3)NC(=O)[C@H](CO)NC(=O)[C@H](CC(C)C)NC(=O)[C@@H]3CCCN3C(=O)[C@H]3CCCN3C(=O)[C@H](Cc3ccc(O)cc3)NC(=O)[C@H]([C@@H](C)O)NC(=O)[C@H](C(C)C)NC(=O)[C@H](CCN)NC(=O)[C@H](Cc3c[nH]c4ccccc34)NC(=O)[C@H](CCN)NC(=O)[C@@H](CCN)NC2=O)[C@@H](C)O)CCNC(=O)[C@H]([C@@H](C)O)NC(=O)[C@H](CCN)NC(=O)[C@H](CCN)NC1=O [Ex. 96] (I: cyclo(W[Dab]VTY[dP]PLSY[Dab]E[dDab][Dab]) / II: [Dab]T[Dab][Dab][Dab][dL]L[Dab][Dab]T; amide I:12-II:N; lactam II:4-II:C) | – | – | – | – | – | – | – | – | 0.25 | 1 | 0.25 | 0.5 | 0.125 | 0.25 | 1 | – | 4
4 | CC(C)C[C@@H]1NC(=O)[C@@H](CC(C)C)NC(=O)[C@H](CCN)NC(=O)[C@@H](NC(=O)[C@H](CCN)NC(=O)[C@@H](NC(=O)[C@H](CCN)NC(=O)CC[C@@H]2NC(=O)[C@H](CCN)NC(=O)[C@H](Cc3ccc(O)cc3)NC(=O)[C@H]([C@@H](C)O)NC(=O)[C@H](C(C)C)NC(=O)[C@@H]3C[C@@H](O)CN3C(=O)[C@H]3CCN3C(=O)[C@H](CO)NC(=O)[C@H](CO)NC(=O)[C@H](C(C)C)NC(=O)[C@H](CCN)NC(=O)[C@H](Cc3c[nH]c4ccccc34)NC(=O)[C@H](CCN)NC(=O)[C@@H](CCN)NC2=O)[C@@H](C)O)CCNC(=O)[C@H]([C@@H](C)O)NC(=O)[C@H](CCN)NC(=O)[C@H](CCN)NC1=O [Ex. 93] (I: cyclo([Dab]E[dDab][Dab]W[Dab]VSS[dAze][Hyp]VTY) / II: [Dab]T[Dab][Dab][Dab][dL]L[Dab][Dab]T; amide I:2-II:N; lactam II:4-II:C) | – | – | – | – | – | – | – | – | 2 | 1 | 2 | 0.25 | 0.5 | 0.25 | 8 | – | 1
5 | CCCC[C@@H]1NC(=O)[C@@H]2CCCN2C(=O)[C@H]2CCCN2C(=O)[C@H](CO)NC(=O)[C@H](C)NC(=O)[C@H](C(C)(C)C)NC(=O)[C@@H](NC(=O)[C@H](Cc2c[nH]c3ccccc23)NC(C)=O)CSSC[C@@H](C(=O)N[C@@H](CCN)C(=O)N[C@H](C(=O)N[C@@H](CCN)C(=O)N[C@@H](CCN)C(=O)N[C@H]2CCNC(=O)[C@H]([C@@H](C)O)NC(=O)[C@H](CCN)NC(=O)[C@H](CCN)NC(=O)[C@H](CC(C)C)NC(=O)[C@@H](Cc3ccccc3)NC(=O)[C@H](CCN)NC2=O)[C@@H](C)O)NC(=O)[C@H](Cc2ccc(O)cc2)NC(=O)[C@H](CO)NC1=O [Ex. 34] (Ac-WC[Tle]AS[dP]P[Nle]SYC[Dab]T[Dab][Dab][Dab][Dab][dF]L[Dab][Dab]T; disulfide 2-11; lactam 16-C) | – | – | – | – | – | – | – | – | 0.25 | 0.125 | 0.25 | 0.125 | 0.0625 | 0.125 | 1 | 1 | –
6 | CC(C)C[C@@H]1NC(=O)[C@@H](CC(C)C)NC(=O)[C@H](CCN)NC(=O)[C@@H](NC(=O)[C@H](CCN)NC(=O)[C@@H](NC(=O)[C@H](CCN)NC(=O)[C@H](CCN)NC(=O)[C@@H]2CSSC[C@H](NC(=O)[C@@H](N)Cc3c[nH]c4ccccc34)C(=O)N[C@@H](C(C)C)C(=O)N[C@@H](C)C(=O)N[C@@H](CO)C(=O)NCC(=O)N3CCC[C@H]3C(=O)N[C@@H](CC(C)C)C(=O)N[C@@H](CO)C(=O)N[C@@H](Cc3ccc(O)cc3)C(=O)N2)[C@@H](C)O)CCNC(=O)[C@H]([C@@H](C)O)NC(=O)[C@H](CCN)NC(=O)[C@H](CCN)NC1=O [Ex. 128] (H-WCVASGPLSYC[Dab][Dab]T[Dab][Dab][Dab][dL]L[Dab][Dab]T; disulfide 2-11; lactam 16-C) | – | – | – | – | – | – | – | – | 0.5 | 0.25 | 0.125 | 0.5 | 0.125 | 0.125 | 4 | 1 | –
7 | CCCC[C@@H]1NC(=O)[C@@H]2CCCN2C(=O)[C@H]2CCCN2C(=O)[C@H](CO)NC(=O)[C@H](C)NC(=O)[C@H](C(C)(C)C)NC(=O)[C@@H](NC(=O)[C@H](Cc2c[nH]c3ccccc23)NC(=O)[C@@H](N)CN)CSSC[C@@H](C(=O)N[C@@H](CCN)C(=O)N[C@H](C(=O)N[C@@H](CCN)C(=O)N[C@H]2CCNC(=O)[C@H]([C@@H](C)O)NC(=O)[C@H](CCN)NC(=O)[C@H](CCN)NC(=O)[C@H](CC(C)C)NC(=O)[C@@H](Cc3ccccc3)NC(=O)[C@H](CCN)NC2=O)[C@@H](C)O)NC(=O)[C@H](Cc2ccc(O)cc2)NC(=O)[C@H](CO)NC1=O [Ex. 37] (H-[Dap]WC[Tle]AS[dP]P[Nle]SYC[Dab]T[Dab][Dab][Dab][dF]L[Dab][Dab]T; disulfide 3-12; lactam 16-C) | – | – | – | – | – | – | – | – | 0.5 | 0.5 | 0.125 | 0.5 | 0.125 | 0.125 | 2 | 2 | –
8 | CN[C@@H](Cc1c[nH]c2ccccc12)C(=O)N[C@@H](CCN)C(=O)N[C@H](C(=O)N[C@H]1CC(=O)NCC[C@@H](C(=O)N[C@@H](Cc2ccc(O)cc2)C(=O)N[C@@H](CCN)C(=O)N(C)CC(=O)N[C@@H](CCN)C(=O)N[C@H](C(=O)N[C@@H](CCN)C(=O)N[C@H]2CCNC(=O)[C@H]([C@@H](C)O)NC(=O)[C@H](CCN)NC(=O)[C@H](CCN)NC(=O)[C@H](CC(C)C)NC(=O)[C@@H](CC(C)C)NC(=O)[C@H](CCN)NC2=O)[C@@H](C)O)NC(=O)[C@H](C(C)C)NC(=O)[C@@H]2CCCN2C(=O)[C@H]2CCN2C(=O)[C@H]([C@@H](C)O)NC1=O)C(C)(C)C [Ex. 176] (H-[NMeW][Dab][Tle]DT[dAze]PV[Dab]Y[Dab][Sar][Dab]T[Dab][Dab][Dab][dL]L[Dab][Dab]T; lactam 4-9, 16-C) | – | – | – | – | – | – | – | – | 0.0625 | 0.5 | 0.03125 | 0.25 | 0.03125 | 0.0625 | 0.25 | – | <1
